Source: patent US7071163B2, “Compounds for targeting hepatocytes in vivo” (Mirus Bio Corporation, priority 2002, dated 2006)
Peptide text beside a SMILES is read from it. * marks the point of attachment. Biotin = O=C1N[C@H]2[C@H](CS[C@H]2CCCCC(=O)*)N1; PEG4 = NCCOCCOCCOCCOCCC(=O)O

Key:
[1] = tested on: mouse hepatocytes; experiment: Delivery of biotinylated Cy3-dextran and Cy3-siRNA by MC892-SA conjugate; type: in vivo
Protocol: B. Delivery of biotinylated cargo by SA-p17 peptide conjugates. […] 2 mg SA was dissolved in 200 μl dH2O and added to a 200 μl 100 mM sodium phosphate/300 mM NaCl/2 mM EDTA, pH 7.2. A 10 mole equivalent of SPDP (Pierce) dissolved in DMF at 10 mg/ml was then added to the SA solution and mixed at RT for 1 h. The SPDP-modified streptavidin was then purified using a G-25 Sephadex column. It was determined that each SA molecule contained an average of 1.8 PDP groups based on a pyridine-2-thione assay. The SA-PDP conjugate was added to MC892 at a 1:18 molar ratio and incubated for 24 h at 4° C. The MC892-SA conjugates were purified on a G-25 Sephadex column. The sample was then freeze-dried and dissolved in a solution of 25 mM MES, 125 mM NaCl, pH 6.5 at 3 mg/ml.
One mg of NHS-PEG4-Biotin suspended in dry DMF at 10 mg/ml was added to 30 mg amino dextran (Molecular Probes, 70 kDa, 17.9 mole amine per polymer) that was dissolved in 0.1 M NaHCO3 at 10 mg/ml (molar ratio of 4.5 to 1). This solution was mixed overnight at room temperature, transferred into cellulose tubing (Fisher, 12–14,000 MWCO) and dialyzed once against 20 L 20 mM NH4Cl followed twice against 5 L dH20. The dialyzed sample was lyophilized. The sample was then dissolved in dH2O at 30 mg/ml. Each dextran polymer was estimated to contain an average of 0.5 biotin group. This biotinylated dextran was fluorescently labeled with Cy3-OSu (Amersham) at a weight ratio of 1:0.074. Excess free dye was removed using a Sephadex G-50 column. Labeled dextran was eluted in 25 mM NH4CO3. The sample was freeze dried and resuspended at 7.5 mg/ml in 25 mM HEPES/125 mM NaCl, pH 8.0. Biotinylated siRNA (5′-biotin-LC-siRNA, Dharmacon) was labeled with Cy3 using Cy3 LabelIT (Mirus Corp) according to manufacturer's instructions. […]
Liver samples were removed 10 min after injection, placed into OCT freezing medium and snap frozen in liquid nitrogen. […] Processed slides were mounted in Vectorshield (Vector Laboratories, Burlingame, Calif.) and analyzed using a Zeiss LSM510 confocal microscope.

[2] = tested on: hepatocytes; experiment: Delivery of Cy3-streptavidin by biotinylated synthetic p17 peptide, monkey; type: in vivo, Cyno monkey; conditions: b107 says ratio 18:1, method b106 13:1, 10 min
Protocol: A. Delivery of streptavidin (SA) by a biotinylated p17 peptide (MC893). […] Purified peptide was mixed with 250 μg of Cy3-labled SA (Jackson ImmunoResearch Laboratories, Inc. West Grove, Pa.) at peptide to SA molar ratios of 1.2:1, 9:1, 18:1, 45: 1, and 90:1 in a solution containing 25 mM HEPES, 125 mM NaCl, pH 8. The mixtures were injected into mice via the tail vein (400 μl injection volume). For monkey injection, 3.3 mg MC893 peptide was mixed with 3 mg of Cy3-SA, a 13:1 molar ratio, and purified using a G50 column. The sample was recovered in 12 ml 25 mM HEPES, 125 mM NaCl, pH 8 and slowly injected into a Cyno monkey via a subcutaneous vein in the arm. All animals were sacrificed 10 min after injection and liver samples were excised and frozen tissue sections prepared and placed onto microscopic slides. Air dried tissue sections were fixed and counterstained with Alexa 488 phalloidin and To-Pro-3 as previously described and analyzed by confocal microcopy.

[3] = tested on: hepatocytes; experiment: Delivery of Cy3-streptavidin by biotinylated synthetic p17 peptide, mouse; conditions: peptide to SA molar ratio of 18:1, 10 min
Protocol: Purified peptide was mixed with 250 μg of Cy3-labled SA (Jackson ImmunoResearch Laboratories, Inc. West Grove, Pa.) at peptide to SA molar ratios of 1.2:1, 9:1, 18:1, 45: 1, and 90:1 in a solution containing 25 mM HEPES, 125 mM NaCl, pH 8. The mixtures were injected into mice via the tail vein (400 μl injection volume). […] All animals were sacrificed 10 min after injection and liver samples were excised and frozen tissue sections prepared and placed onto microscopic slides. Air dried tissue sections were fixed and counterstained with Alexa 488 phalloidin and To-Pro-3 as previously described and analyzed by confocal microcopy.
The ability of biotin-peptide conjugates to target Cy3-labeled streptavidin to hepatocytes in mice is determined by confocal fluorescent microscopy as described above.

[4] = tested on: monkey hepatocytes; experiment: Targeting of recombinant p17 proteins to monkey hepatocytes; type: in vivo; conditions: 500 μg via subcutaneous vein in arm, 1 h
Protocol: 6. Targeting of recombinant p17 proteins to monkey hepatocytes. Recombinant full-length p17 proteins were prepared as previously described. Purified p17 proteins, 500 μg of p17-K211 or p17-E211 in 33 ml of PBS, were slowly injected into monkeys via subcutaneous vein in arm. Liver samples were excised 1 h after injection, submerged in O.C.T. freezing medium and snap frozen in liquid nitrogen. Frozen liver sections (5–7 μm) were prepared using a cryostat and air-dried. Immunofluorescence detection for p17 proteins was performed as described above. Liver sections from an uninjected monkey were used as a control. Images represent an area of 75 μm^2 from a flattened composite of 8 consecutive confocal optical sections (each 0.4 μm thick). P17 is seen in black, cell nuclei in gray, F-actin in gray near basolateral membranes and in near bile capillary membranes.

Cys-PEG4-Lys-Asn-Glu-Ser-Ser-Thr-Asn-Ala-Thr-Asn-Thr-Lys-Gln-Trp-Arg-Asp-Glu-Thr-Lys-Gly-Phe-Arg-Asp-Glu-Ala-Lys211-Arg-Phe-Lys-Asn-Thr-Ala-Gly [MC892]
Cy3-dextran signal in hepatocytes ([1]; MC892-SA with biotinylated Cy3-dextran, 20 min (not shown)): internalized Cy3-dextran signals found in clusters near cell nuclei
Cy3-dextran signal in hepatocytes ([1]; MC892-SA with biotinylated Cy3-labeled 70 kDa dextran, 10 min after injection): high levels of Cy3-dextran signal was observed inside hepatocytes
targeting of Cy3-siRNA to liver ([1]; MC892-SA with biotinylated Cy3-siRNA, 10 min): successful targeting of siRNA to the liver

C[C@H](NC(=O)[C@H](CCC(=O)O)NC(=O)[C@H](CC(=O)O)NC(=O)[C@H](CCCNC(=N)N)NC(=O)[C@H](Cc1ccccc1)NC(=O)CNC(=O)[C@H](CCCCN)NC(=O)[C@@H](NC(=O)[C@H](CCC(=O)O)NC(=O)[C@H](CC(=O)O)NC(=O)[C@H](CCCNC(=N)N)NC(=O)[C@H](Cc1c[nH]c2ccccc12)NC(=O)[C@H](CCC(N)=O)NC(=O)[C@H](CCCCN)NC(=O)[C@@H](NC(=O)[C@H](CC(N)=O)NC(=O)[C@@H](NC(=O)[C@H](C)NC(=O)[C@H](CC(N)=O)NC(=O)[C@@H](NC(=O)[C@H](CO)NC(=O)[C@H](CO)NC(=O)[C@H](CCC(=O)O)NC(=O)[C@H](CC(N)=O)NC(=O)[C@H](CCCCN)NC(=O)CCOCCOCCOCCOCCNC(=O)CCOCCOCCOCCOCCNC(=O)CCCC[C@@H]1SC[C@@H]2NC(=O)N[C@@H]21)[C@@H](C)O)[C@@H](C)O)[C@@H](C)O)[C@@H](C)O)C(=O)N[C@@H](CCCCN)C(=O)N[C@@H](CCCNC(=N)N)C(=O)N[C@@H](Cc1ccccc1)C(=O)N[C@@H](CCCCN)C(=O)N[C@@H](CC(N)=O)C(=O)N[C@H](C(=O)N[C@@H](C)C(=O)NCC(=O)O)[C@@H](C)O [MC893] ({Biotin-PEG4-PEG4}-KNESSTNATNTKQWRDETKGFRDEAKRFKNTAG-OH)
targeting of Cy3-SA to hepatocytes [2]: efficiently targeted Cy3-SA to hepatocytes
targeting of Cy3-SA to hepatocytes [3]: efficiently targeted Cy3-SA to hepatocytes

B1: p17-K211: bacterially expressed His-tagged full-length wild-type T7 p17 tail fiber protein (SEQ ID 4) (protein)
chain: MGSSHHHHHHSSGLVPRGSHMANVIKTVLTYQLDGSNRDFNIPFEYLARKFVVVTLIGVDRKVLTINTDYRFATRTTISLTKAWGPADGYTTIELRRVTSTTDRLVDFTDGSILRAYDLNVAQIQTMHVAEEARDLTTDTIGVNNDGHLDARGRRIVNLANAVDDRDAVPFGQLKTMNQNSWQARNEALQFRNEAETFRNQAEGFKNESSTNATNTKQWRDETKGFRDEAKRFKNTAGQYATSAGNSASAAHQSEVNAENSATASANSAHLAEQQADRAEREADKLENYNGLAGAIDKVDGTNVYWKGNIHANGRLYMTTNGFDCGQYQQFFGGVTNRYSVMEWGDENGWLMYVQRREWTTAIGGNIQLVVNGQIITQGGAMTGQLKLQNGHVLQLESASDKAHYILSKDGNRNNWYIGRGSDNNNDCTFHSYVHGTTLTLKQDYAVVNKHFHVGQAVVATDGNIQGTKWGGKWLDAYLRDSFVAKSKAWTQVWSGSAGGGVSVTVSQDLRFRNIWIKCANNSWNFFRTGPDGIYFIASDGGWLRFQIHSNGLGFKNIADSRSVPNAIMVENE
modifications: His tag; Bacteriophage T7
liver localization of p17 protein in monkey [4]: efficiently targets to monkey hepatocytes
